Assay results from EP4582413A1, “ARYLTETRAHYDROPYRIDINE COMPOUND AND PEST CONTROL AGENT” (priority 2022, dated 2024).

Tested on: Trichostrongylus axei
Assay: Effect test for Trichostrongylus axei
Assay type: in vivo
Set-up: concentration or dose not given beside the values
Conditions: test chemical solution B added to eggs in 96-well plate, unhatched eggs and inactive larvae counted 4 days after addition, 25°C, relative to untreated plot
Description: Agar medium with 1% potato dextrose was aliquoted into 60-µl portions in a 96-well plate, and 30 µl of sterilized water containing Trichostrongylus axei eggs and a freeze-dried Escherichia coli OP50 strain (five eggs, 10 µg/10 µl Escherichia coli) was added to each well. From above, 10 µl of test chemical solution B of the presently invented compound was added to each well, and the plate was left to stand under dark conditions at 25°C.

| SMILES | efficacy (%) |
| --- | --- |
| O=C(Nc1ccc(Cl)nc1)C1=C(O)CC(c2cnc(C(F)(F)F)c(-c3ccc(F)nc3)c2)NC1=O (stereo not shown) [2-170] | ≥ 50% |
| Cc1ccc(NC(=O)C2=C(O)CC(c3cnc(C(F)(F)F)c(-c4ccc(F)nc4)c3)NC2=O)nc1 (stereo not shown) [2-171] | ≥ 50% |
| Cn1ccc(NC(=O)C2=C(O)CC(c3cnc(C(F)(F)F)c(-c4ccc(F)nc4)c3)NC2=O)n1 (stereo not shown) [2-172] | ≥ 50% |
| O=C(Nc1ccc(Br)cn1)C1=C(O)CC(c2cnc(C(F)(F)F)c(-c3ccc(F)nc3)c2)NC1=O (stereo not shown) [2-177] | ≥ 50% |
| O=C(Nc1ccc(C(F)(F)F)cn1)C1=C(O)CC(c2cnc(C(F)(F)F)c(-c3ccc(F)nc3)c2)NC1=O (stereo not shown) [2-179] | ≥ 50% |
| O=C(Nc1ncc(Cl)cc1F)C1=C(O)CC(c2cnc(C(F)(F)F)c(-c3ccc(F)nc3)c2)NC1=O (stereo not shown) [2-181] | ≥ 50% |
| O=C(Nc1ccc(Cl)cn1)C1=C(O)CC(c2cnc(Cl)c(-c3ccc(F)cc3)c2)NC1=O (stereo not shown) [2-220] | ≥ 50% |
| O=C(Nc1ccc(Cl)nc1)C1=C(O)CC(c2cnc(Cl)c(-c3ccc(F)cc3)c2)NC1=O (stereo not shown) [2-221] | ≥ 50% |
| O=C(Nc1ncc(Cl)cc1F)C1=C(O)CC(c2cnc(Cl)c(-c3ccc(F)cc3)c2)NC1=O (stereo not shown) [2-232] | ≥ 50% |
| O=C(Nc1ccc(C(F)(F)F)nc1)C1=C(O)CC(c2cnc(Cl)c(-c3ccc(F)cc3)c2)NC1=O (stereo not shown) [2-234] | ≥ 50% |
| O=C(Nc1ccc(F)cn1)C1=C(O)CC(c2cnc(C(F)(F)F)c(-c3ccc(F)cc3)c2)NC1=O (stereo not shown) [2-244] | ≥ 50% |
| COc1ccc(-c2cc(C3CC(O)=C(C(=O)Nc4ccc(F)cn4)C(=O)N3)cnc2C(F)(F)F)cc1 (stereo not shown) [2-245] | ≥ 50% |
| O=C(Nc1ccc(F)cn1)C1=C(O)CC(c2cnc(C(F)(F)F)c(-c3cccc(F)c3)c2)NC1=O (stereo not shown) [2-246] | ≥ 50% |
| COc1cccc(-c2cc(C3CC(O)=C(C(=O)Nc4ccc(F)cn4)C(=O)N3)cnc2C(F)(F)F)c1 (stereo not shown) [2-247] | ≥ 50% |
| Cc1ccccc1-c1cc(C2CC(O)=C(C(=O)Nc3ccc(F)cn3)C(=O)N2)cnc1C(F)(F)F (stereo not shown) [2-248] | ≥ 50% |
| O=C(Nc1ccc(F)cn1)C1=C(O)CC(c2cnc(C(F)(F)F)c(-c3ccccc3F)c2)NC1=O (stereo not shown) [2-249] | ≥ 50% |
| COc1ccccc1-c1cc(C2CC(O)=C(C(=O)Nc3ccc(F)cn3)C(=O)N2)cnc1C(F)(F)F (stereo not shown) [2-250] | ≥ 50% |
| O=C(Nc1ccc(F)cn1)C1=C(O)CC(c2cnc(C(F)(F)F)c(-c3cccnc3)c2)NC1=O (stereo not shown) [2-251] | ≥ 50% |
| Cc1cccc(-c2cc(C3CC(O)=C(C(=O)Nc4ccc(F)cn4)C(=O)N3)cnc2Cl)c1 (stereo not shown) [2-252] | ≥ 50% |
| Cc1cccc(-c2cc(C3CC(O)=C(C(=O)Nc4ccc(Cl)nc4)C(=O)N3)cnc2Cl)c1 (stereo not shown) [2-254] | ≥ 50% |
| Cc1ccc(NC(=O)C2=C(O)CC(c3cnc(Cl)c(-c4cccc(C)c4)c3)NC2=O)nc1 (stereo not shown) [2-255] | ≥ 50% |

| SMILES | efficacy (%) |
| --- | --- |
| Cc1cccc(-c2cc(C3CC(O)=C(C(=O)Nc4ccn(C)n4)C(=O)N3)cnc2Cl)c1 (stereo not shown) [2-256] | ≥ 50% |
| Cc1cccc(-c2cc(C3CC(O)=C(C(=O)Nc4cc(C#N)ccn4)C(=O)N3)cnc2Cl)c1 (stereo not shown) [2-262] | ≥ 50% |
| Cc1cccc(-c2cc(C3CC(O)=C(C(=O)Nc4ccc(C#N)nc4)C(=O)N3)cnc2Cl)c1 (stereo not shown) [2-266] | ≥ 50% |
| Cc1cccc(-c2cc(C3CC(O)=C(C(=O)Nc4ncccc4C)C(=O)N3)cnc2Cl)c1 (stereo not shown) [2-272] | ≥ 50% |
| Cc1ccc(NC(=O)C2=C(O)CC(c3cnc(Cl)c(-c4cccc(C)c4)c3)NC2=O)nc1 (stereo not shown) [2-273] | ≥ 50% |
| O=C(Nc1cccnn1)C1=C(O)CC(c2cnc(Cl)c(-c3ccc(F)nc3)c2)NC1=O (stereo not shown) [2-289] | ≥ 50% |
| Cn1nccc1NC(=O)C1=C(O)CC(c2cnc(Cl)c(-c3ccc(F)cc3)c2)NC1=O (stereo not shown) [2-290] | ≥ 50% |
| O=C(Nc1nc[nH]n1)C1=C(O)CC(c2cnc(Cl)c(-c3ccc(F)cc3)c2)NC1=O (stereo not shown) [2-291] | ≥ 50% |
| O=C(Nc1ccc(Cl)nc1)C1=C(O)CC(c2nc(-c3ccnc(F)c3)no2)NC1=O (stereo not shown) [3-060] | ≥ 50% |
| Cc1cc(-c2noc(C3CC(O)=C(C(=O)Nc4ccc(F)cn4)C(=O)N3)n2)ccn1 (stereo not shown) [3-061] | ≥ 50% |
| O=C(Nc1ccc(F)cn1)C1=C(O)CC(c2nc(-c3ccncc3F)no2)NC1=O (stereo not shown) [3-064] | ≥ 50% |
| O=C(Nc1ccc(F)nc1)C1=C(O)CC(c2nc(-c3ccc(F)cc3)no2)NC1=O (stereo not shown) [3-082] | ≥ 50% |
| O=C(Nc1ccc(F)cn1)C1=C(O)CC(c2nc(-c3cncc(F)c3)no2)NC1=O (stereo not shown) [3-083] | ≥ 50% |
| Cn1ccc(-c2noc(C3CC(O)=C(C(=O)Nc4ccc(F)cn4)C(=O)N3)n2)n1 (stereo not shown) [3-085] | ≥ 50% |
| O=C(Nc1ccc(F)cn1)C1=C(O)CC(c2nc(-c3csc(Br)c3)no2)NC1=O (stereo not shown) [3-086] | ≥ 50% |
| Cc1ccc(-c2noc(C3CC(O)=C(C(=O)Nc4ccc(F)cn4)C(=O)N3)n2)cn1 (stereo not shown) [3-087] | ≥ 50% |
| O=C(Nc1ccc(F)cn1)C1=C(O)CC(c2nc(-c3cncs3)no2)NC1=O (stereo not shown) [3-097] | ≥ 50% |
| O=C(Nc1ccc(Cl)cn1)C1=C(O)CC(c2nc(-c3ccc(F)nc3)no2)NC1=O (stereo not shown) [3-102] | ≥ 50% |
| O=C(Nc1ccc(F)cn1)C1=C(O)CC(c2nc(-c3ccsc3)no2)NC1=O (stereo not shown) [3-110] | ≥ 50% |
| Cn1nc(Cl)c(-c2noc(C3CC(O)=C(C(=O)Nc4ccc(F)cn4)C(=O)N3)n2)c1Cl (stereo not shown) [3-114] | ≥ 50% |
| Cc1cc(NC(=O)C2=C(O)CC(c3nc(-c4ccnc(F)c4)no3)NC2=O)on1 (stereo not shown) [3-121] | ≥ 50% |

| SMILES | efficacy (%) |
| --- | --- |
| CON=Cc1cccc(-c2noc(C3CC(O)=C(C(=O)Nc4ccc(F)cn4)C(=O)N3)n2)c1 (stereo not shown) [3-124] | ≥ 50% |
| CON=C(C)c1cccc(-c2noc(C3CC(O)=C(C(=O)Nc4ccc(F)cn4)C(=O)N3)n2)c1 (stereo not shown) [3-125] | ≥ 50% |
| Cc1ccc(NC(=O)C2=C(O)CC(c3nc(-c4ccc(F)cc4)no3)NC2=O)nc1 (stereo not shown) [3-127] | ≥ 50% |
| Cc1ccc(NC(=O)C2=C(O)CC(c3nc(-c4cccc(F)c4)no3)NC2=O)nc1 (stereo not shown) [3-128] | ≥ 50% |
| Cc1ccc(NC(=O)C2=C(O)CC(c3nc(-c4ccccc4F)no3)NC2=O)nc1 (stereo not shown) [3-129] | ≥ 50% |
| COc1ccc(-c2noc(C3CC(O)=C(C(=O)Nc4ccc(F)cn4)C(=O)N3)n2)cc1 (stereo not shown) [3-137] | ≥ 50% |
| O=C(Nc1ccc(F)cn1)C1=C(O)CC(c2nc(-c3cc(F)c(F)c(F)c3)no2)NC1=O (stereo not shown) [3-138] | ≥ 50% |
| O=C(Nc1ccc(F)cn1)C1=C(O)CC(c2nc(-c3cc(F)c(F)cc3F)no2)NC1=O (stereo not shown) [3-139] | ≥ 50% |
| O=C(Nc1ccc(F)cn1)C1=C(O)CC(c2nc(-c3ccc(F)c(Cl)c3)no2)NC1=O (stereo not shown) [3-141] | ≥ 50% |
| O=C(Nc1ccc(F)cn1)C1=C(O)CC(c2nc(-c3ncc(C(F)(F)F)cc3Cl)no2)NC1=O (stereo not shown) [3-148] | ≥ 50% |
| Cn1ccc(NC(=O)C2=C(O)CC(c3nc(-c4ccc(F)cc4F)no3)NC2=O)n1 (stereo not shown) [3-154] | ≥ 50% |
| Cn1nc(Cl)c(-c2noc(C3CC(O)=C(C(=O)Nc4ccccn4)C(=O)N3)n2)c1Cl (stereo not shown) [3-170] | ≥ 50% |
| Cn1nc(Cl)c(-c2noc(C3CC(O)=C(C(=O)Nc4nccs4)C(=O)N3)n2)c1Cl (stereo not shown) [3-171] | ≥ 50% |
| O=C(Nc1ccc(Cl)cn1)C1=C(O)CC(c2nc(-c3cccc(F)c3)no2)NC1=O (stereo not shown) [3-180] | ≥ 50% |
| O=C(Nc1cc(F)ccn1)C1=C(O)CC(c2nc(-c3ccc(F)cc3F)no2)NC1=O (stereo not shown) [3-199] | ≥ 50% |
| Cn1ccc(NC(=O)C2=C(O)CC(c3nc(-c4ccc(F)cc4)no3)NC2=O)n1 (stereo not shown) [3-202] | ≥ 50% |
| O=C(Nc1ncc(Cl)cc1F)C1=C(O)CC(c2nc(-c3ccc(F)nc3)no2)NC1=O (stereo not shown) [3-271] | ≥ 50% |
| O=C(Nc1ccc(F)c(F)c1)C1=C(O)CC(c2nc(-c3ccc(F)nc3)no2)NC1=O (stereo not shown) [3-274] | ≥ 50% |
| Cc1cc(-c2noc(C3CC(O)=C(C(=O)Nc4cc(C(F)(F)F)n(C)n4)C(=O)N3)n2)ccn1 (stereo not shown) [3-275] | ≥ 50% |

Tested on: green peach aphids (Myzus persicae)
Assay: Insecticidal test for green peach aphids
Assay type: in vivo
Conditions: 500 ppm chemical solution sprinkled (2.5 mg/cm^2), wingless imagoes on leaf disc, six days, 25°C; 8640 min
Description: Wet absorbent cotton was laid on each glass dish having an inner diameter of 3 cm, a Chinese olive leaf cut into a circle having a diameter of 3 cm was placed thereon, and four wingless green peach aphids (Myzus persicae) imagoes were released. After a day, a 10% by mass emulsion of the presently invented compound prepared according to the above formulation example for an emulsion was diluted with water containing a spreader to prepare a chemical solution having a concentration of 500 ppm. The chemical solution prepared was sprinkled (2.5 mg/cm^2) with a rotary tower sprinkler, and the dishes were capped and accommodated in a thermostatic room at 25°C. […] The test was carried out in duplicate.

| SMILES | death rate |
| --- | --- |
| CCCOc1ccc(-c2cncc(C3CC(O)=C(C(=O)Nc4ccc(F)cc4)C(=O)N3)c2)cn1 (stereo not shown) [2-007] | ≥ 90% |
| O=C(Nc1ccc(Cl)nn1)C1=C(O)CC(c2cnc(Cl)c(-c3ccc(Cl)nc3)c2)NC1=O (stereo not shown) [2-046] | ≥ 90% |
| CSc1cccc(NC(=O)C2=C(O)CC(c3cnc(Cl)c(-c4cccc(C)c4)c3)NC2=O)c1 (stereo not shown) [2-284] | ≥ 90% |
| Cc1cccc(-c2cc(C3CC(O)=C(C(=O)Nc4cccc(S(C)(=O)=O)c4)C(=O)N3)cnc2Cl)c1 (stereo not shown) [2-285] | ≥ 90% |
| CN(C)c1ccc(-c2noc(C3CC(O)=C(C(=O)Nc4ccc(F)cn4)C(=O)N3)n2)cc1 (stereo not shown) [3-118] | ≥ 90% |
| Cc1ccc(NC(=O)C2=C(O)CC(c3nc(-c4ncccn4)no3)NC2=O)nc1 (stereo not shown) [3-167] | ≥ 90% |

Same assay, conditions: Myzus persicae, foliar, 144 h; 500 ppm chemical solution sprinkled (2.5 mg/cm^2), wingless imagoes on leaf disc, six days, 25°C; read-out: death rate

| SMILES | mortality at 500 µg/mL |
| --- | --- |
| O=C(Nc1ccc(F)cc1)C1=C(O)CC(c2cncc(-c3cccc(C(F)(F)F)c3)c2)NC1=O (stereo not shown) [2-003] | ≥ 90% |
| COC(=O)c1ccc(NC(=O)C2=C(O)CC(c3cnc(Cl)c(-c4ccc(F)cc4)c3)NC2=O)cc1 (stereo not shown) [2-292] | ≥ 90% |
| CN(C)c1ccc(-c2noc(C3CC(O)=C(C(=O)Nc4ccc(F)cc4)C(=O)N3)n2)cc1 (stereo not shown) [3-117] | ≥ 90% |
